From patent publication US10513519B2, “Solid forms of (1S,4S)-4-(2-(((3S,4R)-3-fluorotetrahydro-2H-pyran-4-yl)amino)-8-((2,4,6-trichlorophenyl)amino)-9H-purin-9-yl)-1-methylcyclohexane-1-carboxamide and methods of their use” (Signal Pharmaceuticals, LLC, priority 2016, dated 2019)
Values after ≈ are worked out from the molar mass of the structure shown. Read-outs that look alike come from different tables or passages of the source.

How the values were obtained:
[1] = Solubility in biorelevant media (FeSSIF, FaSSIF, FaSSGF, FeSSGF)
[2] = Solid state stability of salt forms and free base; type: physicochemical
[3] = Solubility of salt forms and free base in water, SGF, SIF and 0.5% HPMC in […] Tween 80
[4] = Dynamic vapor sorption (hygroscopicity); type: physicochemical; conditions: for hygroscopicity (in words): DVS; for DVS wt gain: @ 95% RH, Compound 1 HCl salt forms; for water uptake: between 0 and 90% RH; for DVS water uptake: up to 90% RH, Compound 1 citrate salt polymorphs
Procedure: Dynamic vapor sorption (DVS) was measured using DVS advantage (Surface Measurement Systems Ltd). The samples were tested under isotherm (25° C.) at a targeted RH of 0 to 95% full cycle in step mode. For an isotherm test, the chamber temperature was maintained by a water bath at constant 25.0±1.0° C. The relative humidity in the sample chamber was generated by combining different flows of wet and dry nitrogen with variable flow rates. The analysis was performed in 10% RH increments. Sampling rate was 1 sec save data rate is 20 sec. The dm/dt (%) value was set at 0.001 with a dm/dt window of 5 min., a minimum stability duration time of 10 min, and a maximum stage time of 180 min. The sample's equilibrium weight corresponding to each RH was recorded. A sorption isotherm was obtained by plotting equilibrium moisture content versus RH.
Hygroscopicity was determined on a Surface Measurement Systems DVS. A sample size of 5-20 mg was loaded into the DVS instrument sample pan and the sample was analyzed on a DVS automated sorption analyzer at room temperature. The relative humidity was increased from 0% to 90% RH at 10% RH step, then decreased in a similar manner to accomplish a full adsorption/desorption cycle.

[5] = Stability of free base in solution and in solid state under stress conditions; type: physicochemical
physchem [6] = conditions: simulated gastric fluid, thermodynamic from solid
physchem [7] = conditions: FaSSGF, fassgf or other biorelevant
[8] = Compression test (2000-psi pressure); type: physicochemical; conditions: 2000-psi pressure for about 1 minute
[9] = Form conversion / form transfer experiments (humidity, drying, competitive slurries); type: physicochemical
Description: The thermodynamic relationship between the two forms was explored through form conversion experiments (Table 31).

[10] = Approximate solubility in various solvents at room temperature; type: physicochemical
Procedure: (§1) The resulting mixture was agitated for about 1 day at room temperature. If all of the solids appeared to be dissolved by visual inspection, the estimated solubility was calculated based on the total volume of solvent used to give a complete solution. If solids were present, a known volume of filtrate was evaporated to dryness and the weight of the residue was measured to estimate the solubility.
as §1, with “for” for “for about”

[11] = tested on: TEAD reporter (8×GTIIC-luciferase) in W138 VA13 cells; experiment: TEAD reporter assay; type: cell-based; conditions: 24 or 72 hours
Procedure: TEAD reporter activity was analyzed using W138 VA13 cells stably expressing a YAP/TAZ responsive synthetic promoter driving luciferase expression (8×GTIIC-luciferase). 10,000 cells per well were seeded on a white-walled 96-well plate and left overnight. After 16-20 hours, cells were treated with compound and TEAD reporter activity was measured 24 or 72 hours later using Bright Glo luciferase assay (Promega) according to the manufacturer's instructions. This assay was performed 3 times for Compound 1 and twice for Trametinib.

[12] = Approximate solubility of HCl salt starting material in selected organic solvents; type: physicochemical; conditions: room temperature
Procedure: Solubility of the starting mater in selected organic solvents was determined by mixing with selected solvents at room temperature.

Compound: CC1(C(N)=O)CCC(n2c(Nc3c(Cl)cc(Cl)cc3Cl)nc3cnc(NC4CCOCC4F)nc32)CC1.Cl.O (centres unmarked) [HCl Salt]
- pH ([1]; FaSSGF): 1.82
- pH ([1]; FaSSIF): 6.12
- pH ([1]; FeSSGF): 5.66
- pH ([1]; FeSSIF): 4.85
- solid state stability (in words) [2]: chemically and physically stable in solid state
- Chemical (40° C./75% RH) RRT = 2.2 ([2]; 40° C./75% RH): 0.02%
- Physical (40° C./75% RH) ([2]; 40° C./75% RH): Stable
- Chemical (60° C.) RRT2.2 [2]: 0.05%
- Physical (60° C.) [2]: Stable
- pH at final ([3]; 0.5% HPMC/[…] Tween80): 3.06
- pH at final ([3]; SGF): 1.17
- pH at final ([3]; SIF): 7.22
- pH at final ([3]; Water): 3.65
- hygroscopicity with respect to monohydrate ([4]; 0-95% RH): < 1.0%
- hygroscopicity (in words) [4]: low hygroscopicity
- remaining water released ([4]; from 5% RH to dry): ~2.8 % wt
- additional moisture sorption ([4]; from 25 to 95% RH): ~1.7%
- loss of water content during desorption cycle ([4]; from 95 down to 5% RH): ~1.5%

Compound: C[C@]1(C(N)=O)CC[C@@H](n2c(Nc3c(Cl)cc(Cl)cc3Cl)nc3cnc(N[C@@H]4CCOC[C@H]4F)nc32)CC1 [amorphous]
- reversible weight change ([4]; between 10 and 50% RH): about 3.5%
- DVS water uptake up to 90 % RH [4]: 6.9 wt % water

Compound: CC1(C(N)=O)CCC(n2c(Nc3c(Cl)cc(Cl)cc3Cl)nc3cnc(NC4CCOCC4F)nc32)CC1.Cl.O (centres unmarked) [Form 8]
- DVS wt gain [4]: ~2% wt

Compound: C[C@]1(C(N)=O)CC[C@@H](n2c(Nc3c(Cl)cc(Cl)cc3Cl)nc3cnc(N[C@@H]4CCOC[C@H]4F)nc32)CC1 [Free Base]
- pH ([1]; FaSSGF): 2.77
- pH ([1]; FaSSIF): 6.37
- pH ([1]; FeSSGF): 6.23
- pH ([1]; FeSSIF): 4.95
- solid state stability (in words) [2]: chemically and physically stable in solid state
- Physical (40° C./75% RH) ([2]; 40° C./75% RH): Stable
- Chemical (60° C.) RRT2.2 [2]: <0.03%
- Physical (60° C.) [2]: Dehydration (−),
- temperature above which crystal form of monohydrate changes [5]: > 60 °C
- stability in solution ([5]; pH 1.2 to 7.5, 40° C.): stable
- chemical and physical stability in solid state under stress conditions ([5]; solid state, stress conditions): up to seven weeks
- solubility thermodynamic at 24 h (physchem [6]): 3.48 mg/mL (≈ 6.1 mM)
- solubility (physchem [7]): 3.85 mg/mL (≈ 6.74 mM)
- pH at final ([3]; 0.5% HPMC/[…] Tween80): 4.23
- pH at final ([3]; SGF): 1.93
- pH at final ([3]; SIF): 7.33
- pH at final ([3]; Water): 8.11
- hygroscopicity (in words) ([4]; listed as monohydrate free base): slightly hygroscopicity
- Conc. at 24 Hrs: 3 µg/mL
- Conc. at 24 Hrs (pH 4.23): 178 µg/mL

Compound: CC1(C(N)=O)CCC(n2c(Nc3c(Cl)cc(Cl)cc3Cl)nc3cnc(NC4CCOCC4F)nc32)CC1.O=C(O)CC(O)(CC(=O)O)C(=O)O (centres unmarked) [Form Z]
- hygroscopicity (in words) [4]: slightly hygroscopic
- water uptake [4]: about 1.6 % w/w
- solid form after compression [8]: still Form Z

Compound: CC1(C(N)=O)CCC(n2c(Nc3c(Cl)cc(Cl)cc3Cl)nc3cnc(NC4CCOCC4F)nc32)CC1.Cl.O (centres unmarked) [Form 7]
- DVS wt gain [4]: ~4.5% wt

Compound: CC1(C(N)=O)CCC(n2c(Nc3c(Cl)cc(Cl)cc3Cl)nc3cnc(NC4CCOCC4F)nc32)CC1.Cl (centres unmarked) [starting material HCl Salt Form]
- DVS wt gain [4]: ~3.6% wt
- hygroscopicity (in words) [4]: moderately hygroscopic
- mass change ([4]; from 0% RH to 95% RH at 25° C.): 3.6 wt %

Compound: C[C@]1(C(N)=O)CC[C@@H](n2c(Nc3c(Cl)cc(Cl)cc3Cl)nc3cnc(N[C@@H]4CCOC[C@H]4F)nc32)CC1 [Form A]
- weight change ([4]; between 10 and 30% RH): over 3%
- additional water uptake ([4]; between 30-90% RH): approximately 1.4 wt %
- DVS water uptake up to 90 % RH ([4]; listed as A): 4.7 wt % water
- Resulting Form ([9]; no solvent, RT and 0% RH 6 days): B + A
- solubility at 1 day ([10]; 1,4-dioxane, organic solvent or mixture, thermodynamic from solid, 1,4-dioxane): > 50 mg/mL
- solubility at 1 day ([10]; 2-MeTHF, organic solvent or mixture, thermodynamic from solid): > 50 mg/mL
- solubility at 1 day ([10]; DCM, organic solvent or mixture, thermodynamic from solid): > 50 mg/mL
- solubility at 1 day ([10]; EtOAc, organic solvent or mixture, thermodynamic from solid): > 100 mg/mL
- solubility at 1 day ([10]; EtOH, organic solvent or mixture, thermodynamic from solid): > 20 mg/mL
- solubility at 1 day ([10]; EtOH/water (1:1), aqueous with cosolvent or surfactant or cyclodextrin, thermodynamic from solid, EtOH/water (1:1)): > 3 mg/mL
- solubility at 1 day ([10]; IPA, organic solvent or mixture, thermodynamic from solid): > 10 mg/mL
- solubility at 1 day ([10]; IPAc, organic solvent or mixture, thermodynamic from solid): > 50 mg/mL
- solubility at 1 day ([10]; MEK, organic solvent or mixture, thermodynamic from solid): > 50 mg/mL
- solubility at 1 day ([10]; MIBK, organic solvent or mixture, thermodynamic from solid): > 50 mg/mL
- solubility at 1 day ([10]; MTBE, organic solvent or mixture, thermodynamic from solid): > 20 mg/mL
- solubility at 1 day ([10]; MeCN, organic solvent or mixture, thermodynamic from solid): > 3 mg/mL
- solubility at 1 day ([10]; MeCN/water (1:1), aqueous with cosolvent or surfactant or cyclodextrin, thermodynamic from solid, MeCN/water (1:1)): > 50 mg/mL
- solubility at 1 day ([10]; MeOAc, organic solvent or mixture, thermodynamic from solid): > 100 mg/mL
- solubility at 1 day ([10]; MeOH, organic solvent or mixture, thermodynamic from solid): > 50 mg/mL
- solubility at 1 day ([10]; THF, organic solvent or mixture, thermodynamic from solid): > 100 mg/mL
- solubility at 1 day ([10]; THF/water (1:1), aqueous with cosolvent or surfactant or cyclodextrin, thermodynamic from solid, THF/water (1:1)): > 50 mg/mL
- solubility at 1 day ([10]; acetone, organic solvent or mixture, thermodynamic from solid): > 100 mg/mL
- solubility at 1 day ([10]; heptane, organic solvent or mixture, thermodynamic from solid): < 1 mg/mL
- solubility at 1 day ([10]; n-BuOH, organic solvent or mixture, thermodynamic from solid): > 20 mg/mL
- solubility at 1 day ([10]; toluene, organic solvent or mixture, thermodynamic from solid): > 10 mg/mL
- solubility at 1 day ([10]; water, thermodynamic from solid): < 1 mg/mL

Compound: CC(=O)Nc1cccc(-n2c(=O)n(C3CC3)c(=O)c3c(Nc4ccc(I)cc4F)n(C)c(=O)c(C)c32)c1 [Trametinib, reference compound]
- inhibition of TEAD reporter activity [11]: did not inhibit

Compound: CC1(C(N)=O)CCC(n2c(Nc3c(Cl)cc(Cl)cc3Cl)nc3cnc(NC4CCOCC4F)nc32)CC1.O=C(O)CC(O)(CC(=O)O)C(=O)O (centres unmarked) [Z]
- DVS water uptake [4]: ~1.6 wt % water

Compound: Citrate
- hygroscopicity (in words) [4]: low hygroscopicity

Compound: CC1(C(N)=O)CCC(n2c(Nc3c(Cl)cc(Cl)cc3Cl)nc3cnc(NC4CCOCC4F)nc32)CC1.O=C(O)CC(O)(CC(=O)O)C(=O)O (centres unmarked) [Y]
- DVS water uptake [4]: ~2.1 wt % water

Compound: CC1(C(N)=O)CCC(n2c(Nc3c(Cl)cc(Cl)cc3Cl)nc3cnc(NC4CCOCC4F)nc32)CC1.O=C(O)CC(O)(CC(=O)O)C(=O)O (centres unmarked) [Y + Z]
- Resulting Form(s) ([9]; Slurry in EtOAc, RT, 5 days): Y + Z
- Resulting Form(s) ([9]; Slurry in EtOAc, RT, 10 days): Y + Z
- Resulting Form(s) ([9]; Slurry in Toluene, 50° C., 4 days): Z + Y
- Resulting Form(s) ([9]; Slurry in Toluene, RT, 5 days): Z + Y
- Resulting Form(s) ([9]; Slurry in Toluene, RT, 10 days): Z + Y

Compound: CC1(C(N)=O)CCC(n2c(Nc3c(Cl)cc(Cl)cc3Cl)nc3cnc(NC4CCOCC4F)nc32)CC1.Cl (centres unmarked) [anhydrate/amorphous starting material]
- Approximate Solubility ([12]; 2-MeTHF): S < 0.9 mg/mL
- Approximate Solubility ([12]; DCM): S < 1.6 mg/mL
- Approximate Solubility ([12]; DMAc): S > 18 mg/mL
- Approximate Solubility ([12]; DMSO): S > 22 mg/mL
- Approximate Solubility ([12]; EtOAc): S < 1.5 mg/mL
- Approximate Solubility ([12]; EtOH): S > 28 mg/mL
- Approximate Solubility ([12]; H2O): S < 1.0 mg/mL
- Approximate Solubility ([12]; Heptane): S < 1.7 mg/mL
- Approximate Solubility ([12]; IPAc): S < 1.3 mg/mL
- Approximate Solubility ([12]; MIBK): S < 1.5 mg/mL
- Approximate Solubility ([12]; MTBE): S < 1.0 mg/mL
- Approximate Solubility ([12]; MeOAc): S < 0.9 mg/mL
- Approximate Solubility ([12]; MeOH): S > 31 mg/mL
- Approximate Solubility ([12]; NMP): S > 24 mg/mL
- Approximate Solubility ([12]; Toluene): S < 1.4 mg/mL

Compound: CC1(C(N)=O)CCC(n2c(Nc3c(Cl)cc(Cl)cc3Cl)nc3cnc(NC4CCOCC4F)nc32)CC1.O=C(O)CC(O)(CC(=O)O)C(=O)O (centres unmarked) [Form Y]
- hygroscopicity (in words) [4]: slightly hygroscopic
- water uptake [4]: about 2.1 % w/w
- solid form after compression [8]: still Form Y
